This note sets out measurements from ChEMBL document CHEMBL3991601, “The target landscape of clinical kinase drugs” (Science, 2017).

Active and inactive are the calls of the source. Cut-off read from the data, not from the text of the source, for most assays here: actives have a measured Kd and inactives only a lower limit.

Assay [1] has as its target Bone morphogenetic protein receptor type-1A (Homo sapiens, UniProt P36894).
For assay [2], the target named is MAP kinase-activated protein kinase 2 (Homo sapiens, UniProt P49137).
Assay [3] concerns the target Deoxycytidine kinase (Homo sapiens, UniProt P27707).
For assay [4], the target named is Ribosomal protein S6 kinase alpha-5 (Homo sapiens, UniProt O75582).
Assay [5] deals with T1, AarF domain-containing protein kinase 1 (Homo sapiens, UniProt Q86TW2).
T1 sequence (Q86TW2 whole entry): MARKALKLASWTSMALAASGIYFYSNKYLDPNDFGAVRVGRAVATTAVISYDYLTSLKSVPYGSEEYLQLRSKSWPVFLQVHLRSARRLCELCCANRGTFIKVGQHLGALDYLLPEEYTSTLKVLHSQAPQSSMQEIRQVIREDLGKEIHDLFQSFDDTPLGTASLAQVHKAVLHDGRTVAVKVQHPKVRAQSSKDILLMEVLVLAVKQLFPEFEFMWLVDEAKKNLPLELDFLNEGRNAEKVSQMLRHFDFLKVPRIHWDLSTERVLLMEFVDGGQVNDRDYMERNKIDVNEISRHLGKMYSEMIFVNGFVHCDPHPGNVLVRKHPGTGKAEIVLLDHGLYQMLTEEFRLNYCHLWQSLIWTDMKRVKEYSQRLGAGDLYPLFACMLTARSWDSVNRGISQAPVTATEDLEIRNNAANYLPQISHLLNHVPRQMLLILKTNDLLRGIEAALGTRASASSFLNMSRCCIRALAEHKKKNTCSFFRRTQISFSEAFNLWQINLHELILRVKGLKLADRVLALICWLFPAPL

The target of assay [6] is T2, Activin receptor type-1B (Homo sapiens, UniProt P36896).
T2 sequence (P36896 whole entry): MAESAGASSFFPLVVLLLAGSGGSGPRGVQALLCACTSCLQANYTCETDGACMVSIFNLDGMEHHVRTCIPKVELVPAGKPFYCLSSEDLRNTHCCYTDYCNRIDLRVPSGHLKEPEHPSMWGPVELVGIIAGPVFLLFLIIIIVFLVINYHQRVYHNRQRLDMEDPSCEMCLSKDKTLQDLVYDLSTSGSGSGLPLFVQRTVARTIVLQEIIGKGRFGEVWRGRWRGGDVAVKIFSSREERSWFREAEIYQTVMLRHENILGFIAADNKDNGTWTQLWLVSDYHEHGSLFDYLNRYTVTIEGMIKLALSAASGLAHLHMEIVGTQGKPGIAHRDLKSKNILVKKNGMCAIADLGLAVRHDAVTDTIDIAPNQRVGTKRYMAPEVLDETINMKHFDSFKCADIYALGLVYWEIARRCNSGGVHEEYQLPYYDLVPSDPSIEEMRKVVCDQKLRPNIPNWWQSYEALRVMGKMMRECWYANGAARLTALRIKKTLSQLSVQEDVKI

In assay [7] the target is Guanine nucleotide-binding protein G(i) subunit alpha-2 (Homo sapiens, UniProt P04899).
Assay [8] deals with Dual specificity tyrosine-phosphorylation-regulated kinase 1A (Homo sapiens, UniProt Q13627).
Assay [9] has as its target T3, Uncharacterized protein FLJ45252 (Homo sapiens, UniProt Q6ZSR9).
T3 sequence (Q6ZSR9 whole entry): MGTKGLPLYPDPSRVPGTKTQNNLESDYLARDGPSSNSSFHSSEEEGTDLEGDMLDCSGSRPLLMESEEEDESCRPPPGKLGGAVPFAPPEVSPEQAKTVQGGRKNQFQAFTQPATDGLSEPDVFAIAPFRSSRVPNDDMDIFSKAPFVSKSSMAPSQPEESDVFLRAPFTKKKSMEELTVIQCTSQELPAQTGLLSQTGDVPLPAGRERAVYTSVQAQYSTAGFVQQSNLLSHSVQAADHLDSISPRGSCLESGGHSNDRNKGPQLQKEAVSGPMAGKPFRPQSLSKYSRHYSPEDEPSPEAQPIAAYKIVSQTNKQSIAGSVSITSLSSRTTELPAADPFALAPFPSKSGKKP
Particulars: read-out: Kd apparent; k-562, colo 205, sk-n-be(2) and mv-4-11.

For assay [10], the target named is T4, Ephrin type-B receptor 3 (Homo sapiens, UniProt P54753).
T4 sequence (P54753 whole entry): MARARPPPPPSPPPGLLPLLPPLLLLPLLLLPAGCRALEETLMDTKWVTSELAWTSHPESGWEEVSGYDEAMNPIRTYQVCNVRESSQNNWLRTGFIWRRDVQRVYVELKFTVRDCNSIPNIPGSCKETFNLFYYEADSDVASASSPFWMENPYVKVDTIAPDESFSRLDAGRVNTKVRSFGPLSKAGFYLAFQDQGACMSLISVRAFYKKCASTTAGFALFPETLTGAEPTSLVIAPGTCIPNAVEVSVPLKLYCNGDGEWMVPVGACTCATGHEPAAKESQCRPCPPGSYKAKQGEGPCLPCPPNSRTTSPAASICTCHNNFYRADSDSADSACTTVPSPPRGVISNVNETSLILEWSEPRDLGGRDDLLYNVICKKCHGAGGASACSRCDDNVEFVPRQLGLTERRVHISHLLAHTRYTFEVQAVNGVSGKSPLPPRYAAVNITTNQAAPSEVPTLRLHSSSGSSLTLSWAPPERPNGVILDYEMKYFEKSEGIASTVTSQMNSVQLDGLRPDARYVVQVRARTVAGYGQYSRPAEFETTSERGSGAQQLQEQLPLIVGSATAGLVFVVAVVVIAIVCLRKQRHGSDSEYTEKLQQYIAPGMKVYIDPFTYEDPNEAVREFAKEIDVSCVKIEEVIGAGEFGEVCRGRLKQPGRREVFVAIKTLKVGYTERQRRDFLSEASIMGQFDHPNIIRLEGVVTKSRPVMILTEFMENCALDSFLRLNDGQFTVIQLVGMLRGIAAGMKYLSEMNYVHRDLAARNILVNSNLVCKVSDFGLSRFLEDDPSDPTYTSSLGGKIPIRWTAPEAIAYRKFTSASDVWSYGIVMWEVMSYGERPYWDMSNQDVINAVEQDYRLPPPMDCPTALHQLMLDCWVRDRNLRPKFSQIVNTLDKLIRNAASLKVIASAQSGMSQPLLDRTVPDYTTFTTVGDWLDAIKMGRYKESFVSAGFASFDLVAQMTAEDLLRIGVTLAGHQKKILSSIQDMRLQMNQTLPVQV

Assay [11] has as its target Mitotic checkpoint serine/threonine-protein kinase BUB1 (Homo sapiens, UniProt O43683).
In assay [12] the target is Mitogen-activated protein kinase 8 (Homo sapiens, UniProt P45983).
The target in assay [13] is Cyclin-dependent kinase 12 (Homo sapiens, UniProt Q9NYV4).
Note: in the data inactive means no Kd found up to 30 µM.

Sequence of Guanine nucleotide-binding protein G(i) subunit alpha-2 (P04899 whole entry): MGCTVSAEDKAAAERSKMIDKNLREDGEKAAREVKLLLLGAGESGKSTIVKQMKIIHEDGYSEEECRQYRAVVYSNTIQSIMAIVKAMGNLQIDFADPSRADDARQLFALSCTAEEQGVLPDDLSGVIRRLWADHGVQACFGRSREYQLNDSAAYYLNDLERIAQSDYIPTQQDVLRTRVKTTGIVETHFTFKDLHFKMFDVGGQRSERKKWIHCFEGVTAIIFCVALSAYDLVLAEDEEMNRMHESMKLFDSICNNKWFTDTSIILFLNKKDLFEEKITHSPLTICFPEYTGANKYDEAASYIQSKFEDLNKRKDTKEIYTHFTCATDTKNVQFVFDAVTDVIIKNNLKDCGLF
Sequence of Deoxycytidine kinase (P27707 whole entry): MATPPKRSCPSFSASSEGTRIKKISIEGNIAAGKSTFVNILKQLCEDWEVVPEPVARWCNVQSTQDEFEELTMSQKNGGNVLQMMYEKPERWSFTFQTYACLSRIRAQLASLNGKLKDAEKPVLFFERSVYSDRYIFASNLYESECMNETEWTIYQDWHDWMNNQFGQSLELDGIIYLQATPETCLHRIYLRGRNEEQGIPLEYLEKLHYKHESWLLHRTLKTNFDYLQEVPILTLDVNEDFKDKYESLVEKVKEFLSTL
Sequence of Ribosomal protein S6 kinase alpha-5 (O75582 whole entry, the tested form may be a part): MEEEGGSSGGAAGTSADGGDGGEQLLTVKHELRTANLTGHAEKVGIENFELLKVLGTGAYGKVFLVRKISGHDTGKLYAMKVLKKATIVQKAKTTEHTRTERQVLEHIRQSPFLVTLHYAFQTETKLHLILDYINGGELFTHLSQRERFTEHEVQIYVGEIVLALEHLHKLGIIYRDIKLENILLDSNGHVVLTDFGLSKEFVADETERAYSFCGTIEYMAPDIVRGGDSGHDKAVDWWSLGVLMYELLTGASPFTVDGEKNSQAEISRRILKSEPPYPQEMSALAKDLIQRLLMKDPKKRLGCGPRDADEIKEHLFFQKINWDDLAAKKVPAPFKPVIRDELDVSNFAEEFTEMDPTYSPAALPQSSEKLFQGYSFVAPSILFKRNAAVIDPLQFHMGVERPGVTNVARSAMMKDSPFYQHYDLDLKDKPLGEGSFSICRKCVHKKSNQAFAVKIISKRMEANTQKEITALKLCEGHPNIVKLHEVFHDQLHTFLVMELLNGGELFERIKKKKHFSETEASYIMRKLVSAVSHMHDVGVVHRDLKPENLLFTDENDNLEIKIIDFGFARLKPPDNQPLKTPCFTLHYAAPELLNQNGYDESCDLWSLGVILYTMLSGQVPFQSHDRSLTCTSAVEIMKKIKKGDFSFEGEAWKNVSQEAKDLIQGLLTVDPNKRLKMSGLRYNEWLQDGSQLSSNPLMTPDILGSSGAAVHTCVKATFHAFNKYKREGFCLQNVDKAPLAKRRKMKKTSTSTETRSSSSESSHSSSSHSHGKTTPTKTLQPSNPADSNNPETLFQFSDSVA
Sequence of Mitogen-activated protein kinase 8 (P45983 whole entry): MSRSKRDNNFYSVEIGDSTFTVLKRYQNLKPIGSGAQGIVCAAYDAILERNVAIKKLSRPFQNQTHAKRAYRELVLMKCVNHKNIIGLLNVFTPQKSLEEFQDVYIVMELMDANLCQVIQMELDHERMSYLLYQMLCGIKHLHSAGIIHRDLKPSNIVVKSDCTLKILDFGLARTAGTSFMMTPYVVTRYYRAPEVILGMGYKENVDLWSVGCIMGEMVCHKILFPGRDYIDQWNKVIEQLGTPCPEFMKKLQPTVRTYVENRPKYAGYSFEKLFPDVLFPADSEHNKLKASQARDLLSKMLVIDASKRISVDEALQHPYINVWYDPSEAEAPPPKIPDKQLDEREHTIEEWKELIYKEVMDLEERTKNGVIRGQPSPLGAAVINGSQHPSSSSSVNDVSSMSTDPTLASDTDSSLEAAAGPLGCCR
Sequence of Bone morphogenetic protein receptor type-1A (P36894 whole entry): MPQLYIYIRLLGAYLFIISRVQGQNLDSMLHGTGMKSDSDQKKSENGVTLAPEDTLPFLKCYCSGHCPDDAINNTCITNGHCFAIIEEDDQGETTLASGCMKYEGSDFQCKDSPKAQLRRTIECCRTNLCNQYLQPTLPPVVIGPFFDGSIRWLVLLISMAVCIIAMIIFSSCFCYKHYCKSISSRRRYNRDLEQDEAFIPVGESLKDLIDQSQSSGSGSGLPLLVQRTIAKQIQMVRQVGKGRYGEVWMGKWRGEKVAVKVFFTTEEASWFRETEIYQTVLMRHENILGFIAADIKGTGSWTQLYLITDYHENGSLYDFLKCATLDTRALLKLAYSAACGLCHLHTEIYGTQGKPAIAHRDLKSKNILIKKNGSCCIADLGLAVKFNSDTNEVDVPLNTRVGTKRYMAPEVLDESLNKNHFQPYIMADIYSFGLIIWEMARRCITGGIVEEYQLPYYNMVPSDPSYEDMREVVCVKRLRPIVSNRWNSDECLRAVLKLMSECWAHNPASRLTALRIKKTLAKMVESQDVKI
Sequence of Cyclin-dependent kinase 12 (Q9NYV4 whole entry): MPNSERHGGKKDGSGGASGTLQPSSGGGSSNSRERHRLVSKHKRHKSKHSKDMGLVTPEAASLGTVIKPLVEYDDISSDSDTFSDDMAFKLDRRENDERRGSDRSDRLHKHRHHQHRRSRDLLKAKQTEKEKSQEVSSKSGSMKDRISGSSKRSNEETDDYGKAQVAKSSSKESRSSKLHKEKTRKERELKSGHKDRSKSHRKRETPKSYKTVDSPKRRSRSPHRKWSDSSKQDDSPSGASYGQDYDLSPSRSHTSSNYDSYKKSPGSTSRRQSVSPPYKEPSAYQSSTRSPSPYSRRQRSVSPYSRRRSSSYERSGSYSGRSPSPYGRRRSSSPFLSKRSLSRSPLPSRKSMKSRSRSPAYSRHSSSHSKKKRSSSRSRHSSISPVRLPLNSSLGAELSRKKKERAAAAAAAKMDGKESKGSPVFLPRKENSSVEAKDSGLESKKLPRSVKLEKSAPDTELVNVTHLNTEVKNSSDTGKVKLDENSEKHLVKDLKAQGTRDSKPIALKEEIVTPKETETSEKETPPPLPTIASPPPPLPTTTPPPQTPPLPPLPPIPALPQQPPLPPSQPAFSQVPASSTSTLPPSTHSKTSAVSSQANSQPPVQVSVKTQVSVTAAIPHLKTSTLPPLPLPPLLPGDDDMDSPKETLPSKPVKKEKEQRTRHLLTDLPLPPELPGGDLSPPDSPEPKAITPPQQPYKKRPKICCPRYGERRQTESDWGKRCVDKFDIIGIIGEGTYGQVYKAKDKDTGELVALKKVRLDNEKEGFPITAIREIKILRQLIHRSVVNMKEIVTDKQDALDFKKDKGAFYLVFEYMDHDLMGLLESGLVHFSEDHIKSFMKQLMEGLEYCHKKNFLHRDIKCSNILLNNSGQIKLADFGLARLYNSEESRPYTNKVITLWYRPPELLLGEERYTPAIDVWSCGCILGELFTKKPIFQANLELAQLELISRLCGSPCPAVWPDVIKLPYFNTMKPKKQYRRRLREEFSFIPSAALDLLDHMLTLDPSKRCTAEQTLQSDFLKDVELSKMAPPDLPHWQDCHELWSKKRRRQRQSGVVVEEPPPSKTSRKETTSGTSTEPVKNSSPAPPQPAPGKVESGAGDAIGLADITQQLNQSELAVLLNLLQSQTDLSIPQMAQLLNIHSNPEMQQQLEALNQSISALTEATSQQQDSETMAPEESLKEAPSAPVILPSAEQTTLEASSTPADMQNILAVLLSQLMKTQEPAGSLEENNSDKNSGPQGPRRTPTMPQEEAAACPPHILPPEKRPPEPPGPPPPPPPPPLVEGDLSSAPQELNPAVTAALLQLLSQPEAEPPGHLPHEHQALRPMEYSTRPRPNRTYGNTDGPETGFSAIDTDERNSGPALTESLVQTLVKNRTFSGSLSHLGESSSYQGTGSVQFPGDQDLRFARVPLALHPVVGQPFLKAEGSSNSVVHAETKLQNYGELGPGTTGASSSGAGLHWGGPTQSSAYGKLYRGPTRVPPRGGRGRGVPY
Sequence of MAP kinase-activated protein kinase 2 (P49137 whole entry): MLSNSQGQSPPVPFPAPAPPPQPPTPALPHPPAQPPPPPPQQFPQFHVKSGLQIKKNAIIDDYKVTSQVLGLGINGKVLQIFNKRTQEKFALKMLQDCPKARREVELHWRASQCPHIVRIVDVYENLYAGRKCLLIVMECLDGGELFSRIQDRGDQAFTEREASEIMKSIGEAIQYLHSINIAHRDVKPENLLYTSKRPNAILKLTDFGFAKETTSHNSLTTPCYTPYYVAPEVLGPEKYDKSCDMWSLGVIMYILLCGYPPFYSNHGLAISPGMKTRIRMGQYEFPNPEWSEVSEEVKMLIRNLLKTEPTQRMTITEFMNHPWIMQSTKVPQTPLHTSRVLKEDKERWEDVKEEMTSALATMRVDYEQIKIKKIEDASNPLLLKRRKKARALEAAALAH

Regarding `O=C1NC(=O)[C@@H](c2cn3c4c(cccc24)CCC3)[C@@H]1c1c[nH]c2ccccc12` [TIVANTINIB], the Kd in assay [1], in [2], in [3], in assay [4], in assay [5] and in assay [6] was > 30 µM (inactive) in each case. Further, the Kd in assay [7], in assay [8], in assay [9], in assay [10], in assay [11] and in assay [12] was > 30 µM (inactive) throughout. The Kd in assay [13] is > 30 µM (inactive).
Take `C[C@@H](NC(=O)c1ncnc(N)c1Cl)c1ncc(C(=O)Nc2cc(C(F)(F)F)c(Cl)cn2)s1` [TOVORAFENIB]: the Kd in assay [1], in assay [2], in assay [3], in [4], in [5] and in assay [6] was > 30 µM (inactive) throughout. Also, the Kd in assay [7] was > 30 µM (inactive); in assay [8], 3.22 µM (active); in assay [9], > 30 µM (inactive); in [10] it was > 30 µM (inactive); in assay [11], > 30 µM (inactive); in assay [12] it was > 30 µM (inactive). The Kd in assay [13] is > 30 µM (inactive).
As for `Cn1ncc(Cl)c1-c1cc(C(=O)N[C@H](CN)Cc2ccc(F)c(F)c2)oc1Cl` [UPROSERTIB], the Kd in assay [1], in [2], in [3], in [4], in [5] and in assay [6] was > 30 µM (inactive) each time. The Kd in [7] is > 30 µM (inactive); in assay [8], 0.238 µM; in assay [9] it was > 30 µM (inactive); in [10] it was > 30 µM (inactive); in assay [11], > 30 µM (inactive); in [12], > 30 µM (inactive). For the same compound, the Kd in [13] is > 30 µM (inactive).
